The source of these data is patent US8173693B2, “Benzenesulfonamide derivatives and pharmaceutical composition thereof” (Purzer Pharmaceutical Co., Ltd., priority 2010, dated 2012).

Entries after “also recorded” stand apart in the source; their conditions may differ.

The subject of test [1] is 4T1-Luc cells. The test can be described thus: In vitro analysis on cell morphology. It is filed as cell-based, murine. The settings on record: 48 hr. Here is the method:
After the 4T1-Luc cells were treated with GM119, a phase-contrast microscope was used to observe the cell morphology of the 4T1-Luc cells. Cover glasses were placed in 6-well plates, and each well was seeded with 50,000 tumor cells. The tumor cells were developed in medium with 10% fetal bovine serum, and then treated with 0, 0.01, 0.1, 1, or 10 μM of GM119 for 48 hr. The cells were stained with Giemsa Stain solution (0.38 g of Giemsa powder, 15% of methanol, and 5% of glycerol). After the cells were washed, dried, and sealed, the images of the cells were photographed with a phase-contrast microscope.

The next test concerns tumor cells. In words: Preliminary cytotoxicity assays (MTT, SRB), tumor cell panel. It is filed as cell-based. The settings on record: comparison over Tables 1-4. Here is the method:
Human Bladder Cancer TSGH cells, Human hepatoblastoma HepG2 cells, Human colorectal adenocarcinoma HT-29 cells, human nasopharyngeal carcinoma KB cells, Human gastric adenocarcinoma AGS cells, Human breast carcinoma MCF-7 cells, lung carcinoma A549 cells, and Human prostate carcinoma PC-3 cells were used in the preliminary cytotoxicity assays of the benzenesulfonamide derivatives of the present invention, and the inhibition activity against the tumor cells was evaluated.
(§1) All cell lines were maintained in RPMI 1640 supplied with 10% fetal bovine serum and maintained in a humidified chamber at 37° C. containing 5% CO2. Then, all cell lines were treated with compounds for 72 hr and subsequently incubated with 0.4 mg/mL of MTT at 37° C. for 2 hr. The medium was removed, and DMSO was added to dissolve MTT precipitate. Cell proliferation was determined by measuring the optical density at 540 nm using a Thermomax microplate reader (Molecular Devices, Sunnyvale, Calif.), and the IC50 values of the benzenesulfonamide derivatives of the present invention were calculated.
All cell lines were maintained in RPMI 1640 supplied with 10% fetal bovine serum into 96-well microtiter plates and maintained in a humidified chamber at 37° C. containing 5% CO2. After 24 hr, cell lines in partial wells were fixed in situ with 10% trichloroacetic acid (TCA) to represent a measurement at the time of drug addition (T0). Then, cell lines in other wells were incubated with the benzenesulfonamide derivatives of the present invention for an additional 48 hr, and fixed in situ with 10% TCA to represent a measurement at the time of stopping reaction (Tx). […] Cell proliferation was determined by measuring the optical density at 515 nm using a Thermomax microplate reader (Molecular Devices, Sunnyvale, Calif.). The half-inhibition concention (GI50) of the benzenesulfonamide derivatives of the present invention was obtained from the detected optical density.

The test system of a further test is HeLa Cervical cancer. In words: MTT assay. It is filed as cell-based. The settings on record: Homo sapiens, 72 hr. As to the method:
as §1
(In general: Tetrazolium assays rely on reduction of a dye to a coloured formazan, in cell work by metabolically active cells.)

In another test the test system is COLO-205 Colon cancer. In words: MTT assay. The class given is cell-based. The settings on record: Homo sapiens, 72 hr. Here is the method:
as §1

The subject of test [2] is WI-38 Normal lung fibroblast. The test can be described thus: MTT assay. The class given is cell-based. The settings on record: Homo sapiens. Here is the method: as §1
The subject of test [3] is WSI Normal skin fibroblast. In words: MTT assay. It is filed as cell-based. Here is the method:
as §1

Test [4] deals with lung carcinoma A549 cells. The test can be described thus: SRB assay. It is filed as cell-based. The settings on record: Homo sapiens, 48 hr. Background: The SRB assay estimates cell density from bound dye.
The test system of test [5] is lung carcinoma A549 cells. In words: In vitro migration assay (scratch). The class given is cell-based. The settings on record: 0, 0.5, or 10 μM, 18 hr, microscope images. Here is the method: Lung carcinoma A549 cells (BCRC 60074; BCRC) were maintained in RPMI 1640 supplied with 10% fetal bovine serum and maintained in a humidified chamber at 37° C. containing 5% CO2. All the cell lines were developed for two generations every week.
In the in vitro migration assay, a scratch was mechanically made on the monolayer of cells to form a line-shaped scratch with cytological exfoliation. The scratch may lead the edge of the cell monolayer to close.
When the monolayered A549 cells were saturated, a scratch was made using a 200-μL tip directly on the monolayer of the A549 cells. Cells were then treated with GM119 with a concentration of 0, 0.5, or 10 μM. After incubation for 18 hr, all the migrations were tracked with a microscope.

Test [6] has as its system 4T1-Luc cells. In words: In vivo evaluation, long-time treatment, mice implanted with 4T1-Luc cells. Here is the method: GM119 (25 mg/kg) and Taxol (10 mg/kg) were simultaneously applied to a mouse implanted with 4T1-Luc cells for a long time to observe the effect of GM119 on the 4T1-Luc cells.
A suspension of 4T1-Luc cells in matrigel was injected into the breast adipocyte to obtain mice implanted with luciferase tumor cells. […] When the size of the tumor cells was achieved to 200-500 mm^3, the mice were divided into […], and the number of the mice in each group is ≧5. Then, 0/0, 0/25, 10/[…], or 10/0 mg/kg of Taxol/GM119 was abdominal-injected into the mice every two days until death of the mice, wherein GM119 and Taxol were dissolved in cremophor, and the volume of injection to each mouse is 50 μl. The weight and the number of the mice were recorded every day to analyze the change on the weight and the survival time of the mice. After the drugs were applied to the mice, the size of the tumor cells in the mice was evaluated with bioluminescence every two days.

The test system of test [7] is Human prostate carcinoma PC-3 cells. In words: MTT assay. The note with it: 72 hr. The class given is cell-based.
Test [8] relates to Human hepatoblastoma HepG2 cells. The test can be described thus: MTT assay. It is filed as cell-based. The settings on record: 72 hr, read-out: IC50 HepaG2.
Test [9] has as its system Human Bladder Cancer TSGH cells. In words: MTT assay. The class given is cell-based. The settings on record: 72 hr.
Test [10] relates to human nasopharyngeal carcinoma KB cells. The test can be described thus: MTT assay. It is filed as cell-based.
Test [11] concerns Human breast carcinoma MCF-7 cells. The test can be described thus: SRB assay. It is filed as cell-based. The settings on record: MCF7, 48 hr.
The test system of test [12] is HUVECs (human umbilical vein endothelial cells). The test can be described thus: In vitro tube formation assay (capillary formation, VEGF-induced). The class given is cell-based. As to the method: At day 1, HUVECs (human umbilical vein endothelial cells) cocultured with human fibroblasts were incubated in optimized medium and maintained in a humidified chamber at 37° C. containing 5% CO2. […] The cells were stimulated with VEGF (25 ng/mL) without or with GM119 (0.1, 1 or 10 μM). The media were replaced at days 3, 6, and 8. At day 11, the tube-like structures of the umbilical vein endothelial cells were observed by an anti-human CD31 antibody (Kurabo, Tokyo, Japan), and the area of the tube-like structures was analyzed.

Usually IC50 stands for the point on the concentration scale where inhibition reaches its midpoint. As to `COc1ccc(S(=O)(=O)Nc2cccc3c2[nH]c2c(C)ccc(C)c23)cc1` [Compound 6c, N-(5,8-Dimethyl-9H-carbazol-1-yl)-4-methoxybenzenesulfonamide], the “growth of the 4T1 cells (microscope images)” value in the test with 4T1-Luc cells [1] (0.01 μM) is listed as “the growth of the 4T1 cells can be inhibited”. Further, the “inhibition of the 4T1 cells (microscope images)” value in the test on 4T1-Luc cells [1] (10 μM) is given as “the inhibition of the 4T1 cells is apparent”. In addition, the “inhibitory activity against the tumor cells (in words)” value in the test on tumor cells is listed as “has the best inhibition activity; also recorded: has the highest inhibitory activity”. The IC50 was 600 nM in the test on HeLa Cervical cancer; 50 nM in the test with COLO-205 Colon cancer; over 10000 nM in [2]; over 10000 nM in [3]; 10000 nM in test [4]; 240 nM in [7]. Besides, the concentration for half-maximal inhibition (IC50) in test [8] is 400 nM; in [9], 500 nM; in [10] (Homo sapiens, KB, MTT assay, 72 hr), 800 nM; in [11] it was over 10000 nM. Besides, the “inhibition on the migration of the A549 cells” value in [5] is recorded as “the inhibition on the migration of the A549 cells was greater as the concentration of the GM119 was increased”. In addition, the “survival of the mice” value with 4T1-Luc cells [6] (long time: Taxol 10 mg/kg and/or GM119 25 mg/kg abdominal-injected every two days until death, FIG. 3) is on record as “the survival time of the mice is the longest”. Further, the “growth of the tumor cells (bioluminescence)” value in the test with 4T1-Luc cells [6] (long-time treatment) is recorded as “the growth of the tumor cells can be inhibited”. For the same compound, the “inhibitory activity against KB cells compared with E7070” value in [10] (own MTT value vs literature value) was “has higher inhibitory activity against KB cells than E7070”. Moreover, the “inhibition activity compared with suramin” value in test [12] (10 μM GM119 vs 10 μM suramin) is recorded as “almost equivalent to that of suramin”. In test [12] (VEGF 25 ng/mL, GM119 0.1, 1 or 10 μM, day 11), the “inhibition of formation of tube-like structures induced by VEGF” value is “can inhibit the formation of the tube-like structures”.
